Assay results taken from patent US12528802B2, “Heterocyclic compound” (Takeda Pharmaceutical Company Limited, priority 2019, dated 2026).
Values belong to the molecule of their own block, whether it stands above or below them.

Key:
[1] = system: glucosylceramide (GlcCer); experiment: Pharmacodynamic test using Gaucher's disease model mouse (glucosylceramide lowering effect); type: in vivo; details: Gba D409V KI mice, two hours after last administration, ± standard deviation
Description: (§1) Pharmacodynamic Test Using Gaucher's Disease Model Mouse (Glucosylceramide and Glucosylsphingosine Lowering Effects)
(§2) Glucosylsphingosine (GlcSph) is known to be produced by deacylation of GlcCer and accumulated in tissues in patient with Gaucher's disease. Therefore, the GlcSph lowering effect of the compound of Example 119 due to the glucosylceramide synthase inhibitory effect was evaluated by measuring the GlcSph concentration in the tissue. For the experiment, Gba D409V KI mice, which were Gaucher's disease model mice in which GlcSph is accumulated, were purchased from Jackson Laboratory and used.
(§3) The test compound was prepared in a 0.5% methylcellulose suspension to a dose of 10 or 30 mg/kg, and orally administered. The administration was performed once a day for 2 months. Two hours after the last administration, the blood and cerebral cortex were collected, the plasma was prepared from the blood, and methanol is added to the cerebral cortex to prepare a homogenate. A mixed solution of isopropanol and ethanol was added to the obtained plasma and the methanol homogenate of the cerebral cortex, and the lipids were extracted. The GlcCer and GlcSph concentrations of the extracted samples were measured by LC/MS/MS.
(§4) The results of GlcCer were calculated from the following formula: (GlcCer concentration in the test compound administration group)/(GlcCer concentration in the 0.5% methylcellulose suspension administration group)×100. The results of GlcSph were calculated from the following formula: (GlcSph concentration in the test compound administration group)/(GlcSph concentration in the 0.5% methylcellulose suspension administration group)×100. The standard deviation values were also shown.

[2] = system: glucosylceramide (GlcCer); experiment: Pharmacodynamic test using mouse (glucosylceramide lowering effect); type: in vivo; details: C57BL/6J mice, 10 mg/kg oral, six hours after administration, ± standard deviation
Description: Pharmacodynamic Test Using Mouse (Glucosylceramide Lowering Effect)
For the experiment, C57BL/6J mice were purchased from CLEA Japan, Inc. and used. Glucosylceramide synthase is an enzyme that synthesizes glucosylceramide (GlcCer) from uridine diphosphate glucose and ceramide. Therefore, the glucosylceramide synthase inhibitory effect of the compound of Example 119 was evaluated by measuring the GlcCer concentration in the tissue.
as §3, with “10” for “10 or 30”, “Six” for “The administration was performed once a day for 2 months. Two”, “the” for “the last”, “GlcCer” for “GlcCer and GlcSph”
The results were calculated from the following formula: (GlcCer concentration in the test compound administration group)/(GlcCer concentration in the 0.5% methylcellulose suspension administration group)×100.
The standard deviation values were also shown.

[3] = system: Glucosylsphingosine (GlcSph); experiment: Pharmacodynamic test using Gaucher's disease model mouse (glucosylsphingosine lowering effect); type: in vivo; details: Gba D409V KI mice, two hours after last administration, ± standard deviation
Description: as §1, §2, §3, §4

[4] = molecular target: T1, glucosylceramide synthase (Homo sapiens, UniProt Q16739); experiment: Glucosylceramide synthase (GCS) enzyme assay, microsome fraction, C8 glucosylceramide quantified by Rapidfire MS/MS; type: biochemical; details: test compound 10 μM, 1.7 μM UDP-glucose, 3 μM C8 ceramide, room temperature 60 min; for inhibition at 10 µM: read-out: GCS enzyme inhibitory rate at 10 μM (%) (% of control)
T1 construct: made in house; host or cells: Expi293F cells (transient expression, pcDNA3.3-TOPO vector); microsome fraction used as enzyme source
T1 sequence (Q16739 1-394): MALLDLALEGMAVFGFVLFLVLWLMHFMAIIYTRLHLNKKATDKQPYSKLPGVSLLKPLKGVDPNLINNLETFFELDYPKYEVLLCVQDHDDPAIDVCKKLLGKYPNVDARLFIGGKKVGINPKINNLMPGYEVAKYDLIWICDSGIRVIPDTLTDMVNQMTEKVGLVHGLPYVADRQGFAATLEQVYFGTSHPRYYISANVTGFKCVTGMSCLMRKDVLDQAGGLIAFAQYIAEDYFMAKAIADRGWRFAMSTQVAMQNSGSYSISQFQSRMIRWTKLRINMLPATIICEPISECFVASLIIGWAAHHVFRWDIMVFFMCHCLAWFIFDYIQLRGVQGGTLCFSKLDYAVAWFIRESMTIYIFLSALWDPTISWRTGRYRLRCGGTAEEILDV
Procedure, shortened: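 Test compound, 10 μM final, was run against human GCS from transfected Expi293F microsome fractions, using substrate solution of 6 μM C8 ceramide (in DOPC liposomes) plus 3.4 μM UDP-glucose, pH 7.5 Tris buffer, 60 min, room temperature. Product C8 glucosylceramide measured by Rapidfire MS/MS against an internal standard, % inhibition referenced to no-enzyme and DMSO wells.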

[5] = 10 mg/kg oral once a day for 2 months, cerebral cortex
[6] = 10 mg/kg oral once a day for 2 months, plasma
[7] = 30 mg/kg oral once a day for 2 months, cerebral cortex
[8] = 30 mg/kg oral once a day for 2 months, plasma

Structure (SMILES): O=C1c2ccnc(-c3ccc(F)cc3OCC(F)(F)F)c2CN1c1ccc(C2(O)COC2)cc1 [Example 155, 4-[4-fluoro-2-(2,2,2-trifluoroethoxy)phenyl]-2-[4-(3-hydroxyoxetan-3-yl)phenyl]-2,3-dihydro-1H-pyrrolo[3,4-c]pyridin-1-one]
inhibition at 10 µM [4]: 93%

Structure (SMILES): O=C1c2ccnc(-c3ccc(F)cc3OCC(F)(F)F)c2CN1c1ccc(C2(O)CCOC2)cc1 (single isomer, unassigned) [Example 264, (R or S)-4-[4-fluoro-2-(2,2,2-trifluoroethoxy)phenyl]-2-[4-(3-hydroxyoxolan-3-yl)phenyl]-2,3-dihydro-1H-pyrrolo[3,4-c]pyridin-1-one]
GCS enzyme inhibitory rate at 10 μM (%) (% of control) [4]: 98%

Structure (SMILES): CC(C)(O)COc1cnc(N2Cc3c(ccnc3-c3ccccc3OCC(F)(F)F)C2=O)cn1 [Example 298, 2-[5-(2-hydroxy-2-methylpropoxy)pyrazin-2-yl]-4-[2-(2,2,2-trifluoroethoxy)phenyl]-2,3-dihydro-1H-pyrrolo[3,4-c]pyridin-1-one]
inhibition at 10 µM [4]: 98%

Structure (SMILES): O=C1c2ccnc(-c3ccccc3OCC(F)(F)F)c2CN1c1ccc(C2(O)CCC2)cc1 [Example 191, 2-[4-(1-hydroxycyclobutyl)phenyl]-4-[2-(2,2,2-trifluoroethoxy)phenyl]-2,3-dihydro-1H-pyrrolo[3,4-c]pyridin-1-one]
inhibition at 10 µM [4]: 100%

Structure (SMILES): CC(C)(C#N)c1ccc(N2Cc3c(ccnc3-c3ccc(F)cc3OCC(F)F)C2=O)cc1 [Example 303, 2-(4-{4-[2-(2,2-difluoroethoxy)-4-fluorophenyl]-1-oxo-1,3-dihydro-2H-pyrrolo[3,4-c]pyridin-2-yl}phenyl)-2-methylpropanenitrile]
inhibition at 10 µM [4]: 100%

Structure (SMILES): O=C1c2ccnc(-c3ccccc3OCC(F)(F)F)c2CN1c1ccc(C2(O)CC2)cn1 [Example 265, 2-[5-(1-hydroxycyclopropyl)pyridin-2-yl]-4-[2-(2,2,2-trifluoroethoxy)phenyl]-2,3-dihydro-1H-pyrrolo[3,4-c]pyridin-1-one]
inhibition at 10 µM [4]: 100%

Further lines, with some results ahead:

inhibition at 10 µM [4]: 100%
Structure (SMILES): CC(C)(O)c1ccc(N2Cc3c(ccnc3-c3ccc(F)cc3OCC(F)(F)F)C2=O)cc1 [Example 119, 4-[4-fluoro-2-(2,2,2-trifluoroethoxy)phenyl]-2-[4-(2-hydroxypropan-2-yl)phenyl]-2,3-dihydro-1H-pyrrolo[3,4-c]pyridin-1-one]
GlcCer (% Control) cerebral cortex (10 mg/kg) [1, 5]: 58 ± 6 % Control
GlcCer (% Control) Plasma (10 mg/kg) [1, 6]: 40 ± 10 % Control
GlcCer (% Control) cerebral cortex (30 mg/kg) [1, 7]: 40 ± 7 % Control
GlcCer (% Control) Plasma (30 mg/kg) [1, 8]: 21 ± 4 % Control
GlcCer (% Control) cerebral cortex ([2]; cerebral cortex): 52 ± 7 % Control
GlcCer (% Control) plasma ([2]; plasma): 49 ± 14 % Control
GlcSph (% Control) cerebral cortex (10 mg/kg) [3, 5]: 73 ± 27 % Control
GlcSph (% Control) Plasma (10 mg/kg) [3, 6]: 58 ± 16 % Control
GlcSph (% Control) cerebral cortex (30 mg/kg) [3, 7]: 61 ± 20 % Control
GlcSph (% Control) Plasma (30 mg/kg) [3, 8]: 36 ± 9 % Control

inhibition at 10 µM [4]: 87%
Structure (SMILES): O=C1c2ccnc(-c3ccc(F)cc3OCC(F)(F)F)c2CN1c1ccc(OCC(F)F)nc1 [Example 131, 2-[6-(2,2-difluoroethoxy)pyridin-3-yl]-4-[4-fluoro-2-(2,2,2-trifiuoroethoxy)phenyl]-2,3-dihydro-1H-pyrrolo[3,4-c]pyridin-1-one]

inhibition at 10 µM [4]: 99%
Structure (SMILES): CC(C)(O)COc1ccc(N2Cc3c(ccnc3-c3ccc(F)cc3OCC(F)(F)F)C2=O)cc1 [Example 254, 4-[4-fluoro-2-(2,2,2-trifluoroethoxy)phenyl]-2-[4-(2-hydroxy-2-methylpropoxy)phenyl]-2,3-dihydro-1H-pyrrolo[3,4-c]pyridin-1-one]

inhibition at 10 µM [4]: 88%
Structure (SMILES): O=C1c2ccnc(-c3ccc(F)cc3OCC(F)(F)F)c2CN1c1ccc(F)cn1 [Example 59, 2-(5-fluoropyridin-2-yl)-4-[4-fluoro-2-(2,2,2-trifluoroethoxy)phenyl]-2,3-dihydro-1H-pyrrolo[3,4-c]pyridin-1-one]

inhibition at 10 µM [4]: 98%
Structure (SMILES): O=C1c2ccnc(-c3ccc(F)cc3OCC(F)(F)F)c2CN1c1ccc(OC2CCOCC2)nc1 [Example 167, 4-[4-fluoro-2-(2,2,2-trifluoroethoxy)phenyl]-2-{6-[(oxan-4-yl)oxy]pyridin-3-yl}-2,3-dihydro-1H-pyrrolo[3,4-c]pyridin-1-one]
